Values belong to the compound of their own block, whether it stands above or below them.
System: 653999-131-R-J2-PDC complex spheroids, growth inhibition
Experiment: Anticancer human tumor 653999-131-R-J2-PDC patient-derived lung adenocarcinoma cell line growth inhibition [RAS]
Settings: for IC50: curve of first compound; for viability, T/C: stronger effect = lower value
In short: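 Tumour cells grown as complex spheroids with HUVEC endothelial cells and mesenchymal stem cells, treated with RAS pathway inhibitor combinations. Each agent spans half-log steps from near clinical Cmax, or 10 microM where Cmax is unknown.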

[1] = second compound 0.0316 µM, first compound 0.0316 µM
[2] = second compound 0.0316 µM, first compound 0.1 µM
[3] = second compound 0.0316 µM, first compound 0.316 µM
[4] = second compound 0.0316 µM, first compound 1 µM
[5] = second compound 0.0316 µM, first compound 3.16 µM
[6] = second compound 0.0316 µM, first compound 10 µM
[7] = second compound 0.1 µM, first compound 0.0316 µM
[8] = second compound 0.1 µM, first compound 0.1 µM
[9] = second compound 0.1 µM, first compound 0.316 µM
[10] = second compound 0.1 µM, first compound 1 µM
[11] = second compound 0.1 µM, first compound 3.16 µM
[12] = second compound 0.1 µM, first compound 10 µM
[13] = second compound 0.316 µM, first compound 0.0316 µM
[14] = second compound 0.316 µM, first compound 0.1 µM
[15] = second compound 0.316 µM, first compound 0.316 µM
[16] = second compound 0.316 µM, first compound 1 µM
[17] = second compound 0.316 µM, first compound 3.16 µM
[18] = second compound 0.316 µM, first compound 10 µM
[19] = second compound 1 µM, first compound 0.0316 µM
[20] = second compound 1 µM, first compound 0.1 µM
[21] = second compound 1 µM, first compound 0.316 µM
[22] = second compound 1 µM, first compound 1 µM
[23] = second compound 1 µM, first compound 3.16 µM
[24] = second compound 1 µM, first compound 10 µM
[25] = second compound 3.16 µM, first compound 0.0316 µM
[26] = second compound 3.16 µM, first compound 0.1 µM
[27] = second compound 3.16 µM, first compound 0.316 µM
[28] = second compound 3.16 µM, first compound 1 µM
[29] = second compound 3.16 µM, first compound 3.16 µM
[30] = second compound 3.16 µM, first compound 10 µM
[31] = second compound 10 µM, first compound 0.0316 µM
[32] = second compound 10 µM, first compound 0.1 µM
[33] = second compound 10 µM, first compound 0.316 µM
[34] = second compound 10 µM, first compound 1 µM
[35] = second compound 10 µM, first compound 3.16 µM
[36] = second compound 10 µM, first compound 10 µM
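Further: spheroids exposed to the agents for seven days before the readout.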

IC50 (second compound 0.0316 µM): > 10000 nM | IC50 (second compound 0.1 µM): > 10000 nM | IC50 (second compound 0.316 µM): > 10000 nM | IC50 (second compound 1 µM): 193 nM | IC50 (second compound 3.16 µM): < 31.6 nM | IC50 (second compound 10 µM): < 31.6 nM
Compound: Cc1nc(N2CCC3(CC2)COC(C)C3N)c(CO)nc1Sc1ccnc(N)c1Cl (stereo unspecified) + C#Cc1c(F)ccc2cc(O)cc(-c3ncc4c(N5CC6CCC(C5)N6)nc(OCC56CCCN5CC(F)C6)nc4c3F)c12
viability, T/C [1]: 89.8% | viability, T/C [2]: 88.9% | viability, T/C [3]: 74.5% | viability, T/C [4]: 69.2% | viability, T/C [5]: 73.2% | viability, T/C [6]: 76.2% | viability, T/C [7]: 65.3% | viability, T/C [8]: 62.1% | viability, T/C [9]: 66% | viability, T/C [10]: 60% | viability, T/C [11]: 64.3% | viability, T/C [12]: 55.2% | viability, T/C [13]: 68.4% | viability, T/C [14]: 52.6% | viability, T/C [15]: 50.5% | viability, T/C [16]: 45.9% | viability, T/C [17]: 74.5% | viability, T/C [18]: 47.9% | viability, T/C [19]: 61.8% | viability, T/C [20]: 52.9% | viability, T/C [21]: 48.5% | viability, T/C [22]: 41.1% | viability, T/C [23]: 30.5% | viability, T/C [24]: 30.2% | viability, T/C [25]: 41.9% | viability, T/C [26]: 35.4% | viability, T/C [27]: 32.2% | viability, T/C [28]: 21.8% | viability, T/C [29]: 17.3% | viability, T/C [30]: 20.2% | viability, T/C [31]: 27% | viability, T/C [32]: 13.9% | viability, T/C [33]: 18.9% | viability, T/C [34]: 11% | viability, T/C [35]: 8.6% | viability, T/C [36]: 9.77%

IC50 (second compound 0.0316 µM): > 10000 nM | IC50 (second compound 0.1 µM): 1390 nM | IC50 (second compound 0.316 µM): < 31.6 nM | IC50 (second compound 1 µM): < 31.6 nM | IC50 (second compound 3.16 µM): < 31.6 nM | IC50 (second compound 10 µM): < 31.6 nM
Compound: NC1c2ccccc2OC12CCN(c1cnc3c(N4CCCc5ncccc54)n[nH]c3n1)CC2 (stereo unspecified) + C#Cc1c(F)ccc2cc(O)cc(-c3ncc4c(N5CC6CCC(C5)N6)nc(OCC56CCCN5CC(F)C6)nc4c3F)c12
viability, T/C [1]: 72.8% | viability, T/C [2]: 67.5% | viability, T/C [3]: 64.5% | viability, T/C [4]: 72.2% | viability, T/C [5]: 71.3% | viability, T/C [6]: 60.2% | viability, T/C [7]: 64.5% | viability, T/C [8]: 75.4% | viability, T/C [9]: 60.1% | viability, T/C [10]: 53.2% | viability, T/C [11]: 44.6% | viability, T/C [12]: 41.1% | viability, T/C [13]: 48% | viability, T/C [14]: 50.4% | viability, T/C [15]: 40.4% | viability, T/C [16]: 42.7% | viability, T/C [17]: 32.6% | viability, T/C [18]: 45.8% | viability, T/C [19]: 41.7% | viability, T/C [20]: 34.8% | viability, T/C [21]: 33.9% | viability, T/C [22]: 32.4% | viability, T/C [23]: 32.7% | viability, T/C [24]: 19.5% | viability, T/C [25]: 30.3% | viability, T/C [26]: 25.8% | viability, T/C [27]: 16.9% | viability, T/C [28]: 18.1% | viability, T/C [29]: 18.7% | viability, T/C [30]: 13% | viability, T/C [31]: 12% | viability, T/C [32]: 7.13% | viability, T/C [33]: 7.02% | viability, T/C [34]: 6.33% | viability, T/C [35]: 7.29% | viability, T/C [36]: 7.2%

IC50 (second compound 0.0316 µM): 71.1 nM | IC50 (second compound 0.1 µM): 36.8 nM | IC50 (second compound 0.316 µM): 11.8 nM | IC50 (second compound 1 µM): 3.37 nM | IC50 (second compound 3.16 µM): < 3.16 nM | IC50 (second compound 10 µM): < 3.16 nM
Compound: Nc1ccn(C2OC(CO)C(O)C2(F)F)c(=O)n1 (stereo unspecified) + C#Cc1c(F)ccc2cc(O)cc(-c3ncc4c(N5CC6CCC(C5)N6)nc(OCC56CCCN5CC(F)C6)nc4c3F)c12
viability, T/C (second compound 0.0316 µM, first compound 0.00316 µM): 98.5% | viability, T/C (second compound 0.0316 µM, first compound 0.01 µM): 74.4% | viability, T/C [1]: 58.3% | viability, T/C [2]: 48.5% | viability, T/C [3]: 36.6% | viability, T/C [4]: 32.4% | viability, T/C (second compound 0.1 µM, first compound 0.00316 µM): 96.9% | viability, T/C (second compound 0.1 µM, first compound 0.01 µM): 59.8% | viability, T/C [7]: 56.4% | viability, T/C [8]: 46% | viability, T/C [9]: 34.6% | viability, T/C [10]: 31.4% | viability, T/C (second compound 0.316 µM, first compound 0.00316 µM): 58.1% | viability, T/C (second compound 0.316 µM, first compound 0.01 µM): 52.4% | viability, T/C [13]: 39.2% | viability, T/C [14]: 32.1% | viability, T/C [15]: 27.6% | viability, T/C [16]: 26.5% | viability, T/C (second compound 1 µM, first compound 0.00316 µM): 50.5% | viability, T/C (second compound 1 µM, first compound 0.01 µM): 43% | viability, T/C [19]: 29.8% | viability, T/C [20]: 20.9% | viability, T/C [21]: 19.9% | viability, T/C [22]: 18.9% | viability, T/C (second compound 3.16 µM, first compound 0.00316 µM): 35.4% | viability, T/C (second compound 3.16 µM, first compound 0.01 µM): 28.4% | viability, T/C [25]: 19.1% | viability, T/C [26]: 14.9% | viability, T/C [27]: 14.6% | viability, T/C [28]: 14.5% | viability, T/C (second compound 10 µM, first compound 0.00316 µM): 33.6% | viability, T/C (second compound 10 µM, first compound 0.01 µM): 13.5% | viability, T/C [31]: 21.2% | viability, T/C [32]: 13.9% | viability, T/C [33]: 12.7% | viability, T/C [34]: 10.1%

From PubChem BioAssay AID2060886 (Molecular Pharmacology Branch, DTP, NCI, 2025)
